Assay results from US10738028B2, “Spiro three-membered ring, spiro five-membered ring peptide deformylase inhibitor and use thereof in antibacteria and anti-tumor” (priority 2016, dated 2020).
Like-named read-outs stand apart in the source and are kept apart here.

How the values were obtained:
Type in all cases: cell-based
[1] = system: HCT-116 colorectal cancer cell line; assay: CCK-8 proliferation inhibition; details: Homo sapiens, HCT-116, 72 h, read-out: HCT116 inhibition rate/%
Procedure: (1) HCT-116 colorectal cancer cell line, A549 lung cancer cell line, MGC-803 gastric cancer cell line, BEL-7402 liver cancer cell line, Jurkat T cell leukemia cell line, HL60 acute myeloid leukemia cell line, Hela cervical cancer cell line, MCF-7 breast cancer cell line, PC3 prostate cancer cell line and SAOS-2 osteosarcoma cell line were made into single cell suspension, 180 μL of which was inoculated into 96-well culture plate, which was cultured overnight in CO2 incubator (37° C., 5% CO2, 95% air).
(2) Each of the spiro three-membered ring, spiro five membered ring peptide deformylase inhibitors was dissolved in DMSO, and was further formulated into drug solution with required different final concentration using corresponding cell culture medium. The drug solutions were added to the above cells respectively (20 μL/well), with the control group added with 1‰ DMSO, and cultured in a CO2 incubator for 72 hours.
(3) After incubation for 72 hours, the culture solution was decanted, and 100 μL of 1:10 diluted CCK-8 solution was added.
Wherein, in step (1), the concentration of the single cell suspension was 2000 cells/well.
Wherein, in step (2), HCT-116 cells were cultured in McCoy's 5A medium (containing 10% newborn bovine serum, 1% double antibody); A549 and PC3 cells were cultured in F12 medium (containing 10% newborn bovine serum, 1% double antibody); MGC-803, BEL-7402, SAOS-2, Jurkat and HL60 cells were cultured in 1640 medium (containing 10% newborn bovine serum, 1% double antibody); and MCF-7 and Hela cells were cultured in DMEM high glucose medium (containing 10% newborn bovine serum, 1% double antibody).

[2] = system: methicillin-sensitive Staphylococcus aureus (MSSA); assay: MIC, two-fold agar dilution (CLSI), clinical isolates
Text: (§1) 1. The invention adopts the two-fold agar dilution method recommended by the operating procedure of antimicrobial susceptibility testing set by American Clinical and Laboratory Standards Institute (CLSI) to determine the Minimum Inhibitory Concentration (MIC) of the test samples against the tested strains.

[3] = system: methicillin-sensitive Staphylococcus epidermidis (MSSE); assay: as above
Text: as §1

[4] = system: Escherichia coli (including ESBLs, non-ESBLs); assay: as above
Text: as §1

[5] = system: methicillin-resistant Staphylococcus aureus (MRSA); assay: as above
Text: as §1

[6] = system: methicillin-resistant Staphylococcus epidermidis (MRSE); assay: as above
Text: as §1

[7] = system: Enterococcus faecalis (EFA); assay: as above
Text: as §1

[8] = system: Streptococcus pneoumoniae (SPN); assay: as above
Text: as §1

[9] = system: Enterococcus faecium (EFM); assay: as above
Text: as §1

[10] = system: Moraxella catarrhalis (BCA); assay: as above
Text: as §1

[11] = strain printed MRSA 14-1 (second line of that name, r23, before MRSE 14-2)
[12] = concentration of 30 μM, 72 hours, CCK-8

CCCC[C@H](CN(O)C=O)C(=O)N1CC2(CC2)C[C@H]1C(=O)Nc1cc[nH]n1 [Example 1]
8 µg/mL: MIC (anti-bacterial activity) ([5]; strain MRSA 14-5) | MIC (anti-bacterial activity) [5, 11] | MIC (anti-bacterial activity) ([6]; strain MRSE 14-2) | MIC (anti-bacterial activity) ([6]; strain MRSE 14-4)
64 µg/mL: MIC (anti-bacterial activity) ([7]; strain EFA 14-1) | MIC (anti-bacterial activity) ([7]; strain EFA 14-2) | MIC (anti-bacterial activity) ([7]; strain EFA 14-3)
4 µg/mL: MIC (anti-bacterial activity) ([3]; strain MSSE 14-1) | MIC (anti-bacterial activity) ([3]; strain MSSE 14-3) | MIC (anti-bacterial activity) ([3]; strain MSSE 14-4) | MIC (anti-bacterial activity) ([6]; strain MRSE 14-3)
128 µg/mL: MIC (anti-bacterial activity) ([4]; strain ECO+ 14-2)
7%: inhibition at 30 µM [1]
16 µg/mL: MIC (anti-bacterial activity) ([2]; strain MSSA 14-1) | MIC (anti-bacterial activity) ([2]; strain MSSA 14-2) | MIC (anti-bacterial activity) ([2]; strain MSSA 14-3) | MIC (anti-bacterial activity) ([2]; strain MSSA 14-4) | MIC (anti-bacterial activity) ([3]; strain MSSE 14-2) | MIC (anti-bacterial activity) ([4]; strain ECO+ 14-1) | MIC (anti-bacterial activity) ([5]; strain MRSA 14-1) | MIC (anti-bacterial activity) ([5]; strain MRSA 14-4)
32 µg/mL: MIC (anti-bacterial activity) ([5]; strain MRSA 14-2)
> 128 µg/mL: MIC (anti-bacterial activity) ([4]; strain ECO− 14-1) | MIC (anti-bacterial activity) ([4]; strain ECO− 14-2) | MIC (anti-bacterial activity) ([7]; strain EFA 14-5)

CCCC[C@H](CN(O)C=O)C(=O)N1CC2(CC2)C[C@H]1C(=O)Nc1ncccc1F [Example 5]
64 µg/mL: MIC (anti-bacterial activity) ([4]; strain ECO+ 14-2) | MIC (anti-bacterial activity) ([4]; strain ECO− 14-2)
> 64 µg/mL: MIC (anti-bacterial activity) ([4]; strain ECO− 14-1)
-15%: inhibition at 30 µM [1, 12]
0.5 µg/mL: MIC (anti-bacterial activity) ([2]; strain MSSA 14-1) | MIC (anti-bacterial activity) ([2]; strain MSSA 14-2) | MIC (anti-bacterial activity) ([2]; strain MSSA 14-3) | MIC (anti-bacterial activity) ([2]; strain MSSA 14-4) | MIC (anti-bacterial activity) ([5]; strain MRSA 14-1) | MIC (anti-bacterial activity) ([5]; strain MRSA 14-2) | MIC (anti-bacterial activity) ([5]; strain MRSA 14-4) | MIC (anti-bacterial activity) ([6]; strain MRSE 14-4)
2 µg/mL: MIC (anti-bacterial activity) ([4]; strain ECO+ 14-1) | MIC (anti-bacterial activity) ([7]; strain EFA 14-1) | MIC (anti-bacterial activity) ([7]; strain EFA 14-2) | MIC (anti-bacterial activity) ([7]; strain EFA 14-3) | MIC (anti-bacterial activity) ([7]; strain EFA 14-5)
0.25 µg/mL: MIC (anti-bacterial activity) ([3]; strain MSSE 14-2) | MIC (anti-bacterial activity) ([3]; strain MSSE 14-3) | MIC (anti-bacterial activity) ([3]; strain MSSE 14-4) | MIC (anti-bacterial activity) ([5]; strain MRSA 14-5) | MIC (anti-bacterial activity) [5, 11] | MIC (anti-bacterial activity) ([6]; strain MRSE 14-2)
0.125 µg/mL: MIC (anti-bacterial activity) ([3]; strain MSSE 14-1) | MIC (anti-bacterial activity) ([6]; strain MRSE 14-3)

CCCC[C@H](CN(O)C=O)C(=O)N1CC2(CC2)C[C@H]1C(=O)Nc1ccc(N2CCOCC2)cc1 [Example 14]
0.125 µg/mL: MIC (anti-bacterial activity) ([3]; strain MSSE 15-6)
0.25 µg/mL: MIC (anti-bacterial activity) ([2]; strain MSSA 15-5) | MIC (anti-bacterial activity) ([3]; strain MSSE 15-3) | MIC (anti-bacterial activity) ([3]; strain MSSE 15-4) | MIC (anti-bacterial activity) ([3]; strain MSSE 15-5) | MIC (anti-bacterial activity) ([6]; strain MRSE 15-1) | MIC (anti-bacterial activity) ([6]; strain MRSE 15-2)
8 µg/mL: MIC (anti-bacterial activity) ([8]; strain SPN 16-2) | MIC (anti-bacterial activity) ([7]; strain EFA 15-1) | MIC (anti-bacterial activity) ([7]; strain EFA 15-2) | MIC (anti-bacterial activity) ([7]; strain EFA 15-4) | MIC (anti-bacterial activity) ([7]; strain EFA 15-5) | MIC (anti-bacterial activity) ([7]; strain EFA 15-6) | MIC (anti-bacterial activity) ([7]; strain EFA 15-9)
2 µg/mL: MIC (anti-bacterial activity) ([9]; strain EFM 15-2) | MIC (anti-bacterial activity) ([9]; strain EFM 15-6) | MIC (anti-bacterial activity) ([10]; strain BCA 14-4) | MIC (anti-bacterial activity) ([10]; strain BCA 14-5) | MIC (anti-bacterial activity) ([10]; strain BCA 14-6) | MIC (anti-bacterial activity) ([10]; strain BCA 14-8) | MIC (anti-bacterial activity) ([7]; strain EFA 15-3)
> 32 µg/mL: MIC (anti-bacterial activity) ([4]; strain ECO+ 15-1) | MIC (anti-bacterial activity) ([4]; strain ECO+ 15-2) | MIC (anti-bacterial activity) ([4]; strain ECO+ 15-3) | MIC (anti-bacterial activity) ([4]; strain ECO+ 15-4) | MIC (anti-bacterial activity) ([4]; strain ECO− 15-1) | MIC (anti-bacterial activity) ([4]; strain ECO− 15-2) | MIC (anti-bacterial activity) ([4]; strain ECO− 15-3) | MIC (anti-bacterial activity) ([4]; strain ECO− 15-4)
4 µg/mL: MIC (anti-bacterial activity) ([9]; strain EFM 15-4) | MIC (anti-bacterial activity) ([10]; strain BCA 14-1)
1 µg/mL: MIC (anti-bacterial activity) ([2]; strain MSSA 15-3) | MIC (anti-bacterial activity) ([2]; strain MSSA 15-4) | MIC (anti-bacterial activity) ([2]; strain MSSA 15-6) | MIC (anti-bacterial activity) ([9]; strain EFM 15-1) | MIC (anti-bacterial activity) ([10]; strain BCA 14-7) | MIC (anti-bacterial activity) ([5]; strain MRSA 15-1) | MIC (anti-bacterial activity) ([5]; strain MRSA 15-2) | MIC (anti-bacterial activity) ([5]; strain MRSA 15-3) | MIC (anti-bacterial activity) ([5]; strain MRSA 15-4) | MIC (anti-bacterial activity) ([6]; strain MRSE 15-3) | MIC (anti-bacterial activity) ([6]; strain MRSE 15-7)
21%: inhibition at 30 µM [1, 12]
0.5 µg/mL: MIC (anti-bacterial activity) ([8]; strain SPN 16-4) | MIC (anti-bacterial activity) ([9]; strain EFM 15-3) | MIC (anti-bacterial activity) ([9]; strain EFM 15-5) | MIC (anti-bacterial activity) ([10]; strain BCA 14-10)

C[C@H]1COc2c(N3CCN(C)CC3)c(F)cc3c(=O)c(C(=O)O)cn1c23 [levofloxacin, reference compound]
128 µg/mL: Anti-bacterial activity (MIC) ([9]; strain EFM 15-6) | Anti-bacterial activity (MIC) ([4]; strain ECO− 15-2) | Anti-bacterial activity (MIC) ([7]; strain EFA 15-9)
> 128 µg/mL: Anti-bacterial activity (MIC) ([9]; strain EFM 15-1) | Anti-bacterial activity (MIC) ([9]; strain EFM 15-2) | Anti-bacterial activity (MIC) ([9]; strain EFM 15-3) | Anti-bacterial activity (MIC) ([9]; strain EFM 15-4) | Anti-bacterial activity (MIC) ([9]; strain EFM 15-5) | Anti-bacterial activity (MIC) ([5]; strain MRSA 15-2) | Anti-bacterial activity (MIC) ([5]; strain MRSA 15-3) | Anti-bacterial activity (MIC) ([5]; strain MRSA 15-4) | Anti-bacterial activity (MIC) ([7]; strain EFA 15-1) | Anti-bacterial activity (MIC) ([7]; strain EFA 15-2) | Anti-bacterial activity (MIC) ([7]; strain EFA 15-6)
64 µg/mL: Anti-bacterial activity (MIC) ([2]; strain MSSA 15-5) | Anti-bacterial activity (MIC) ([4]; strain ECO+ 15-2) | Anti-bacterial activity (MIC) ([5]; strain MRSA 15-1)
1 µg/mL: Anti-bacterial activity (MIC) ([8]; strain SPN 16-2) | Anti-bacterial activity (MIC) ([8]; strain SPN 16-4) | Anti-bacterial activity (MIC) ([4]; strain ECO+ 15-4) | Anti-bacterial activity (MIC) ([10]; strain BCA 14-1) | Anti-bacterial activity (MIC) ([10]; strain BCA 14-8) | Anti-bacterial activity (MIC) ([7]; strain EFA 15-4) | Anti-bacterial activity (MIC) ([7]; strain EFA 15-5)
8 µg/mL: Anti-bacterial activity (MIC) ([10]; strain BCA 14-6)
0.03 µg/mL: Anti-bacterial activity (MIC) ([4]; strain ECO− 15-1)
0.25 µg/mL: Anti-bacterial activity (MIC) ([3]; strain MSSE 15-6)
16 µg/mL: Anti-bacterial activity (MIC) ([2]; strain MSSA 15-3) | Anti-bacterial activity (MIC) ([2]; strain MSSA 15-6) | Anti-bacterial activity (MIC) ([6]; strain MRSE 15-1) | Anti-bacterial activity (MIC) ([6]; strain MRSE 15-2) | Anti-bacterial activity (MIC) ([6]; strain MRSE 15-3) | Anti-bacterial activity (MIC) ([6]; strain MRSE 15-7)
0.06 µg/mL: Anti-bacterial activity (MIC) ([4]; strain ECO− 15-3) | Anti-bacterial activity (MIC) ([4]; strain ECO− 15-4)
4 µg/mL: Anti-bacterial activity (MIC) ([10]; strain BCA 14-5)
0.5 µg/mL: Anti-bacterial activity (MIC) ([2]; strain MSSA 15-4) | Anti-bacterial activity (MIC) ([3]; strain MSSE 15-3) | Anti-bacterial activity (MIC) ([3]; strain MSSE 15-4) | Anti-bacterial activity (MIC) ([3]; strain MSSE 15-5)
